Values after ≈ are worked out from the molar mass of the structure shown. Where two headings read alike, the source gives them in different places.
Assays:
[1] = test system: LPS-induced ALI model in rats; assay: HE and Masson staining of lung tissue in LPS-induced rat ALI model; type: in vivo
Procedure: (§1) Male SD rats were acclimatized for one week, and an ALI model in rats was established using tracheal instillation of LPS. The specific modeling steps were as follows: the rats were first anesthetized with isoflurane, then the rats were fixed in a supine position to facilitate intratracheal administration to the lungs. LPS (8 mg/kg) was nebulized into the alveoli using a microsprayer. The microsprayer was then removed, the animal was placed in a vertical position, and gently rotated for 30 seconds to ensure even distribution of LPS throughout the lungs.
(§2) Referring to relevant literature on synephrine, the maximum human dose of synephrine is 100 mg. Based on the clinically equivalent dose, the dose administered to the rats via gavage was 9 mg/kg, and the low-dose inhalation group was 4.5 mg/kg.
Lung tissue fixed in 4% paraformaldehyde was dehydrated, routinely embedded in paraffin, and prepared into 5 μm sections. After dewaxing, the sections were routinely stained with HE, dehydrated, mounted, and observed under a microscope to examine the structure and morphological characteristics of the rat lung tissue in each group.
The sections were routinely dewaxed to water. Hydrophobic zones were drawn, and Bouin's solution was added dropwise. The sections were then covered and incubated at 37° C. After incubation, they were rinsed with running water until the yellow color disappeared. […]

[2] = test system: LPS-induced ALI model in rats; assay: Total protein content in BALF (BCA assay) of ALI rats; type: in vivo, rat; conditions: 6 h after administration
Procedure: as §1, §2
After blood collection, the rats were placed in a supine position on the operating table until their hearts stopped beating. […]
This study used the bicinchoninic acid (BCA) assay to determine the total protein content in BALF. The tissue weight was accurately measured, and physiological saline was added according to the weight-to-volume ratio. […] The test solution was added sequentially according to the protein quantification kit instructions. The absorbance was measured at 562 nm using a microplate reader, and the protein concentration in BALF was calculated.

[3] = test system: LPS-induced ALI model in rats; assay: Serum inflammatory cytokine levels (ELISA) in LPS-induced rat ALI model; type: in vivo; conditions: P<0.0001; 6 h after administration
Procedure: as §1, §2
Six hours after drug administration, rats were anesthetized by intraperitoneal injection of sodium pentobarbital. […]
Rat serum was collected, and the levels of TNF-α, IL-6, IL-8, IL-1β, and IL-1α were measured separately according to the rat ELISA kit instructions. The OD value was measured at 450 nm using a microplate reader. A standard curve was plotted with the concentrations of TNF-α, IL-8, IL-6, IL-1β, and IL-1α standards on the x-axis and the absorbance values on the y-axis. The concentrations of TNF-α, IL-6, IL-8, IL-1β, and IL-1α in serum were calculated based on the standard curve.

[4] = In vitro pulmonary deposition, next-generation pharmaceutical impactor (NGI); type: physicochemical; conditions: 75 L/min, 3.2 s, 10 mg capsules
Source text: The in vitro pulmonary deposition of synephrine DPI samples was investigated using the next-generation pharmaceutical impactor (NGI). The various components of the instrument were connected sequentially, including the NGI device, an adapter, an artificial throat, a pre-separator, and a collection tray. After installation, the airtightness and uniformity of the device were checked. The gas flow rate was 75 L/min. At this gas flow rate, the cutoff values Da of each stage of the collection tray were as follows: S1=7.145 μm, S2=3.971 μm, S3=2.522 μm, S4=1.495 μm, S5=0.835 μm, S6=0.481 μm, S7=0.293 μm, and the micro-orifice collector (MOC)=0.104 μm.
The specific method was as follows: 10 mg synephrine micropowder and API were added to No. 3 hydroxypropyl methylcellulose capsules, respectively, and then loaded into a single-capsule inhalation device. After connecting to an NGI, the measurement was performed. Five capsules were inhaled each time. The inhalation flow rate was 75 L/min, and the inhalation duration was 3.2 s. Drug powder deposited at each stage of the NGI was collected using ultrapure water. The synephrine content was determined under UV conditions, and the FPF and respirable fraction (RF) were calculated.

[5] = Pharmacokinetic study in rats, plasma synephrine by LC-MS/MS; type: in vivo, rat; conditions: for Cmax: rat plasma
Procedure: SPF-grade male SD rats, weighing 180-220 g, were housed under identical experimental conditions: temperature (22±1)° C., relative humidity (55±5) %, and a 12-hour light/dark cycle. They had free access to food and water and underwent a one-week acclimatization period before the experiment.
Column: Hypersil GOLD C8 (100 mm×2.1 mm; 3 μm); Mobile phase: Phase A: 0.1% formic acid aqueous solution, Phase B: acetonitrile; Flow rate: 0.3 mL/min; Column temperature: 40° C.; Injection volume: 2 μL; Gradient elution program: 0-1 min, 5% B; 1-4 min, 5%-90% B; 4-5 min, 90%-5% B.
Mass spectrometry was performed in electrospray ionization (ESI) positive ion scanning mode, using multiple reaction monitoring (MRM) detection mode. The collision gas was high-purity nitrogen; capillary voltage: 3.5 kV; nebulizer pressure: 45 psi; desiccator temperature: 300° C.; drying gas flow rate: 5 L/min (N2); sheath gas temperature: 250° C.; sheath gas flow rate: 11 L/min (N2).
Experimental animals were randomly divided into three groups: (1) tail vein injection group, (2) pulmonary inhalation group, and (3) gavage group, with 5 animals in each group. Animals were fasted for 12 h before administration but had free access to water.
Rats were fasted for 12 hours before the experiment but were allowed free access to water. The rats were weighed to calculate the dosage and numbered. After administration, 0.2 mL of blood was collected from the orbital vein at time points of 2 min, 5 min, 10 min, 15 min, 30 min, 1 h, 2 h, 3 h, 4 h, and 6 h. The blood samples were placed in an EP tube containing heparin sodium and were centrifuged at 3500 rpm for 15 min. The supernatant plasma was separated and stored at −80° C. freezer.
190 μL of a rat plasma sample was accurately pipetted into an EP tube. Then, 10 μL of an internal standard solution was added, and the sample was vortexed for 60 s. Next, 400 μL of acetonitrile was added, and the sample was vortexed for 60 s to precipitate proteins. The sample was then centrifuged at 10000 rpm for 15 mins, and the supernatant was passed through a 0.22 μm microporous filter membrane. Finally, the filtered sample was placed in a glass insert for LC-MS/MS analysis.

[6] = Hygroscopicity by dynamic vapor sorption (DVS); type: physicochemical
Procedure: The hygroscopicity of synephrine API and DPI was analyzed using a dynamic vapor sorption (DVS) analyzer. The experimental temperature was set to room temperature (25° C.), the carrier gas was nitrogen, and the total gas flow rate was 200 mL/min. Samples were weighed and placed on the balance tray of the DVS analyzer. The relative humidity (RH) change program was set as required, and the humidity equilibrium time was also set.

[7] = test system: LPS-induced ALI model in rats; assay: Lung wet-to-dry weight ratio in LPS-induced rat ALI model; type: in vivo; conditions: SYN 9 mg/kg gavage; SYN-DPI 4.5-18 mg/kg inhalation; 6 h after administration
Procedure: as §1, §2
After instillation of the left lung of the rats, the left and right lungs were collected, washed with physiological saline, and dried. The lower lobe of the left lung was used to determine the wet-to-dry weight ratio of the rat lung tissue. […]
The lower lobe of the left lung of the rat was collected, surface blood was removed, surface moisture was wiped off, and the lobe was weighed. The wet weight was recorded. The lobe was then dried in a 60° C. oven for 24 hours, and the dry weight was recorded. The degree of pulmonary edema was evaluated by calculating the lung wet/dry weight ratio. […]

[8] = Solubility of synephrine API in different solvents by HPLC; type: physicochemical
Procedure: Column: Agilent C18 (250 mm×4.6 mm, 5 μm) column; mobile phase: 0.1% formic acid (A)-acetonitrile (B); detection wavelength: 273 nm; flow rate: 1 mL/min; column temperature: 30° C.; injection volume: 10 μL; isocratic elution: 1 min to 10 min; 97% A.
Excess synephrine API was weighed and placed in an EP tube. Then, 1.00 mL of each of the following solutions was added: water, anhydrous ethanol, isopropanol, ethyl acetate, n-butanol, n-octanol, acetonitrile, and n-hexane. The mixture was sonicated (300 W, 40 kHz) until no further dissolution occurred. The tube was then centrifuged at 6000 r min^−1 for 15 min, filtered through a 0.22 μm microporous membrane, and the filtrate was diluted with methanol and analyzed under liquid chromatography conditions. The solubility of synephrine in different solvents was calculated.

[9] = test system: LPS-induced RAW264.7 cells; assay: LPS-induced RAW264.7 cellular inflammation model, ELISA of inflammatory mediators; type: cell-based; conditions: Mus musculus, LPS-stimulated RAW264.7
Procedure: RAW264.7 cells in logarithmic growth phase were seeded at 100 μL per well in a 96-well plate and cultured at 37° C. and 5% CO2 for 24 hours. The supernatant was aspirated and discarded. 100 μL of medium containing synephrine at an appropriate concentration was added to each well for pretreatment for 1 h, followed by the addition of LPS-containing medium. The cells were then co-incubated with the test substance for 24 hours.
Based on the CCK-8 assay results, RAW264.7 cells in logarithmic growth phase were seeded in 96-well plates and divided into the control group, LPS group, LPS+SYN group, and LPS+SYN-DPI group. A cellular inflammation model was established. After culturing for 24 h, the supernatant from each well was collected and centrifuged at 3500 rpm for 10 min. The supernatant was collected and the subsequent procedures were strictly performed according to the ELISA kit instructions. The absorbance was measured at 450 nm using a microplate reader, and the contents of interleukin (IL)-1B, IL-6, tumor necrosis factor (TNF)-α, and nitric oxide (NO) were calculated.

SMILES: C[C@@H]1C[C@H]2[C@@H]3CCC4=CC(=O)C=C[C@]4(C)[C@@]3(F)[C@@H](O)C[C@]2(C)[C@@]1(O)C(=O)CO [Dex]
- pathological damage of rat lung tissue (HE, Masson) ([1]; Dex group, 3 mg/kg gavage): significantly alleviated
- total protein content in BALF compared with the LPS group [2]: significantly improve alveolar interstitial space
- expression levels of serum inflammatory cytokines (IL-1α, IL-1β, IL-6, IL-8, TNF-α) compared to the model group [3]: significantly decreased

SMILES: CNCC(O)c1ccc(O)cc1 (stereo not drawn) [SYN, Synephrine]
- pathological changes, SYN group compared with low-dose SYN-DPI group ([1]; SYN 9 mg/kg gavage vs SYN-DPI 4.5 mg/kg inhalation): no significant difference in pathological changes
- effective in vitro lung deposition rate [4]: 2.25%
- emptying rate [4]: 90.98%
- fine particle fraction (FPF) [4]: 2.69%
- respirable fraction (RF) [4]: 41.26%
- Cmax ([5]; iv, injection group (tail vein)): 1030 ng/mL
- AUC(0-inf) ([5]; plasma, iv, rat, injection group (tail vein)): 1540 ng·h/mL
- half-life ([5]; plasma, iv, rat, injection group (tail vein), read-out: half-life (t½)): 5.33 h
- bioavailability ([5]; plasma, po, rat, gavage group, read-out: AUC(0-∞) as % of the injection group): 64.5%
- AUC(0-t) ([5]; plasma, po, rat, gavage group, read-out: area-under-the-curve (AUC)(0-t)): 876 ng·h/mL
- half-life ([5]; plasma, po, rat, gavage group, read-out: half-life t½): 2.29 h
- Cmax ([5]; po, gavage group): 302 ng/mL
- Cmax as % of the injection group ([5]; rat, gavage group): 29.24%
- half-life (t½) as % of the injection group ([5]; rat, gavage group): 43.01%
- hygroscopicity class (Chinese Pharmacopoeia 2020, 9103 guidelines) ([6]; 90% RH): no or almost no hygroscopicity (hygroscopic weight gain less than 0.2%)
- maximum moisture adsorption / moisture absorption weight gain ([6]; 90% RH, 25° C.): 0.12%
- moisture absorption weight gain percentage ([6]; normal storage conditions (60% RH), 25° C.): less than 0.2%
- wet-to-dry weight ratio of rat lungs compared to the model group [7]: significant reduction
- expression levels of serum inflammatory cytokines (IL-1α, IL-1β, IL-6, IL-8, TNF-α) compared to the model group [3]: significantly decreased
- solubility ([8]; organic solvent or mixture, solvent: Acetonitrile): 10620 ± 60 µg/mL (≈ 63.5 mM)
- solubility ([8]; organic solvent or mixture, solvent: Anhydrous Ethanol): 17200 ± 270 µg/mL (≈ 103 mM)
- solubility ([8]; organic solvent or mixture, solvent: Ethyl Acetate): 640 ± 10 µg/mL (≈ 3.83 mM)
- solubility ([8]; organic solvent or mixture, solvent: Isopropanol): 7060 ± 120 µg/mL (≈ 42.2 mM)
- solubility ([8]; organic solvent or mixture, solvent: n-Butanol): 8760 ± 20 µg/mL (≈ 52.4 mM)
- solubility ([8]; organic solvent or mixture, solvent: n-Octanol): 3660 ± 10 µg/mL (≈ 21.9 mM)
- solubility ([8]; solvent: Water): 13440 ± 20 µg/mL (≈ 80.4 mM)
- Solubility (in words) ([8]; solvent: n-hexane): almost insoluble
- inhibition at 200 µM ([9]; 200 μM, read-out: inhibition of NO production): 16.1%
- inhibition at 400 µM ([9]; 400 μM, read-out: inhibition rate of IL-6 production): 23.3%
